From US20230134760A1, “CAR AND NRF2 DUAL ACTIVATOR AGENTS FOR CYCLOPHOSPHAMIDE-BASED AND DOXORUBICIN-BASED TREATMENTS OF CANCER” (priority 2020, published 2023)

Tests used:
[1] = test system: H9c2 cells; assay: Multi-organ co-culture (BT549/HPH/H9c2), H9c2 viability; type: cell-based, rat; conditions: DL7076 10 μM
Protocol: Additionally, HPH were cultured in collagen-coated 6-well plates and pre-treated as described in the previous co-culture system. BT549 and H9c2 cells were plated on similar modified coverslips 0.8×10^5 cells and allowed to attach for 24 hours during hepatocyte pre-treatment. […] Following pre-treatment, BT549 coverslips were inserted adjacent to H9c2 coverslips over the sandwich cultured HPH as depicted in FIG. 43a. […] Both BT549 and H9c2 cells were harvested at indicated time points and assess for viability, apoptosis, and DNA damage as detailed further. H9c2 cells were seeded 0.8×10^5 in 24-well plates. […] A Cell Counting Kit-8 (Enzo) assay was carried out. Cell viability was described as a percent of vehicle control (0.1% DMSO).

[2] = test system: MDA-MB-231 cells; assay: Cell viability assay, DOX-induced toxicity in MDA-MB-231 cells; type: cell-based; conditions: MDA-MB-231, DOX 2.5 μM
Protocol: Immortalized triple negative breast cancer cell lines MDA-MB-231 and BT549 were obtained from ATCC (Rockville, Md.). Additionally, the h9c2 cell line was purchased from ATCC (Rockville, Md.). […] Human iPSC-derived cardiomyocytes were maintained in Mtesr plus and supplemented according to protocol. These cells were treated for 2 hrs or an overnight as indicated. Following a 2 hr pretreatment, cells were co-treated with DOX at indicated concentrations for 6 or 22 hours. Following the overnight treatments, RNA or protein was isolated. HPH were seeded in collagen-coated 24 well plates and pretreated for 24 hrs. BT549 were seeded on inverted coverslips. After a 24 hr pretreatment, hepatocytes were co-administered as indicated and coverslips were inserted. The cell lines were used for less than 60 passages. H9c2 cells were seeded 0.8×10^5 in 24-well plates. […] A Cell Counting Kit-8 (Enzo) assay was carried out. Cell viability was described as a percent of vehicle control (0.1% DMSO).

[3] = test system: CYP2B6; type: cell-based; conditions: human, hepatocytes
Protocol: HPH were obtained from BIOIVT (Baltimore, Md.) and seeded at 1.5×10^6 or 7.5×10^5 cells/well in 6- or 12-well collagen I-coated plates, while 24-well collagen I-coated plates were seeded at 3.75×10^5 cells/well as described previously. 24 hours after seeding, HPH were cultured cells were overlaid with 0.25 mg/mL Matrigel Corning, Corning, N.Y.) 24 h after seeding in serum-free William's E Medium (WEM) supplemented with ITS+(insulin, transferrin, and selenium, 100×; […] Millipore Sigma), 100 U/ml penicillin, and 100 μg/ml streptomycin (Pen-Strep; ThermoFisher Scientific, Waltham, Mass.), and 2 mM L-glutamine (Invitrogen, Carlsbad, Calif.). Overlaid HPH were treated with compounds in Complete WEM (CYP2B6 and CYP3A4 studies and coculture studies). After 24 h treatment, HPH, BT549, MDA-MB-231, and H9c2 cells were washed and a phenol-chloroform extraction was used to isolate total RNA with the TRIzol reagent (ThermoFisher, Rockford, Ill.). Reverse transcription was performed on extracted RNA (1 μg) to produce cDNA using the High Capacity cDNA Archive kit according to manufacturer's instructions (Applied Biosystems, Foster, Calif.). […] Quantification of expression changes was done by the 2^ΔΔCt method, normalizing to GAPDH as the housekeeping gene and determining the fold change compared to control values (n=3). […]

O=C(NCCN=C=S)c1c(-c2ccc3ccccc3c2)nc2sccn12 [DL7076, N-(2-Isothiocyanatoethyl)-6-(naphthalen-2-yl)imidazo[2,1-b]thiazole-5-carboxamide]
H9c2 viability during CPA/DOX treatment [1]: h9c2 cardiomyocyte viability can be protected during CPA/DOX treatment
reversal of DOX-induced toxicity (viability) [2]: this efficient reversal was not shown
CYP2B6 protein induction [3]: clear preferential induction of CYP2B6
